For data set [1], the system named is Influenza strain A549 A/WSN/33 (H1N1). The data set is described as follows: microbe, parasite or virus in culture. The data set is classed as cell-based. The settings on record: Influenza A virus, A549, 20 h, A549 cells, influenza A/WSN/33 (H1N1), 20 hours incubation; read-out: A549_A(H1N1) EC50.
A short description of another data set: in vitro. The settings on record: human, CC50, uninfected A549 cells, CellTiter-Glo.

Broadly, the EC50 is the concentration giving half of the maximal effect. For orientation: CC50 means the concentration at which the toxic effect on the cells reaches its halfway point. A lower CC50 goes with greater toxicity to the cells. Turning to `O=C1c2c(O)c(=O)ccn2N2CN1CC[C@H]1C[C@@H]1COc1cccc3c1[C@H]2c1ccccc1SC3` (single isomer, unassigned) [Compound 131BB, (1*S,13*R,15*S)-7-hydroxy-17-oxa-24-thia-2,3,10-triazaheptacyclo[16.12.1.12,10.03,8.013,15.022,31.025,30]dotriaconta-4,18,20,22(31),25(30),26,28-heptaene-6,9-dione], the concentration for a half-maximal effect (EC50) in data set [1] is above 0.1 µM. This compound also came in with a half-maximal cytotoxic concentration (CC50) in the data set “in vitro” above 0.2 µM.

With `CC[C@H]1/C=C/COc2cc(F)c(F)c3c2[C@@H](c2ccccc2SC3)N2CN1C(=O)c1c(O)c(=O)ccn12` (single isomer, unassigned) [Compound 126BA, (9*S,17a*S,E)-9-ethyl-24,25-difluoro-12-hydroxy-2,6,9,17a-tetrahydro-3,4-(epiprop[1]en[1]yl[3]ylidene)-10,17-methanobenzo[6,7]thiepino[4,5-c]pyrido[1,2-f][1]oxa[5,6,9]triazacyclotridecine-11,13-dione], the EC50 in data set [1] is 0.00023 µM. Also, the CC50 in “in vitro” is above 0.05 µM.

As to `O=C1c2c(O)c(=O)ccn2N2CN1CCCCOc1ccccc1[C@@H]2c1ccccc1` [Compound 8B, (18S)-12-hydroxy-18-phenyl-6,7,8,9-tetrahydro-18H-10,17-methanobenzo[b]pyrido[1,2-f][1]oxa[5,6,9]triazacyclotridecine-11,13-dione], the EC50 in data set [1] worked out at 4.13 µM. In “in vitro”, this compound registered a cytotoxic concentration (CC50) above 2 µM.

For `CC[C@@H]1/C=C/COc2c(ccc(Cl)c2Cl)C(c2ccccc2)N2CN1C(=O)c1c(O)c(=O)ccn12` (single isomer, unassigned) [Compound 121AA, (9*R,18*R,*E)-3,4-dichloro-9-ethyl-12-hydroxy-18-phenyl-6,9-dihydro-18H-10,17-methanobenzo[b]pyrido[1,2-f][1]oxa[5,6,9]triazacyclotridecine-11,13-dione], the EC50 in data set [1] came out at 0.0035 µM. This compound also yielded a CC50 in “in vitro” above 0.2 µM.

Consider `COC[C@H]1/C=C/COc2c(ccc(F)c2F)[C@@H](c2ccccc2)N2CN1C(=O)c1c(O)c(=O)ccn12` (single isomer, unassigned) [Compound 153BB, (9*R,18*R,*E)-3,4-difluoro-12-hydroxy-9-(methoxymethyl)-18-phenyl-6,9-dihydro-18H-10,17-methanobenzo[b]pyrido[1,2-f][1]oxa[5,6,9]triazacyclotridecine-11,13-dione], for which the half-maximal effective concentration (EC50) in data set [1] was 0.0026 µM. For the same compound, the CC50 in “in vitro” is above 0.1 µM.

In the case of `O=C1c2c(O)c(=O)ccn2N2CN1CCCCCc1ncccc1[C@@H]2c1ccccc1` (single isomer, unassigned) [Compound 23B, (18*S)-12-hydroxy-18-phenyl-5,6,7,8,9,18-hexahydro-10,17-methanodipyrido[1,2-b:2′,3′-k][1,2,5]triazacyclotridecine-11,13-dione], the concentration giving a half-maximal response (EC50) in data set [1] was found to be 12.2 µM. This compound displayed a CC50 in “in vitro” above 1 µM.

On to `CC[C@H]1/C=C/COc2ccccc2[C@H](c2ccccc2)N2CN1C(=O)c1c(O)c(=O)ccn12` [Compound 39AB, (9S,18S,E)-9-ethyl-12-hydroxy-18-phenyl-6,9-dihydro-18H-10,17-methanobenzo[b]pyrido[1,2-f][1]oxa[5,6,9]triazacyclotridecine-11,13-dione], for which the EC50 in data set [1] is above 1 µM. Also, the 50% cytotoxic concentration (CC50) in the data set “in vitro” is above 2 µM.

In the case of `CC[C@H]1C/C=C/COc2c(F)cccc2[C@@H](c2ccccc2)N2CN1C(=O)c1c(O)c(=O)ccn12` (single isomer, unassigned) [Compound 105AA, (2*R,9*S,*E)-9-ethyl-33-fluoro-15-hydroxy-2-phenyl-12,13,14,16-tetrahydro-11H-4-oxa-1(1,3)-pyrido[2,1-f][1,2,4]triazina-3(1,2)-benzenacyclononaphan-6-ene-14,16-dione], the EC50 in data set [1] turned out to be 0.0022 µM. In “in vitro”, the CC50 was above 0.2 µM.

Turning to `CC(C)[C@@H]1/C=C/COc2ccccc2[C@@H](c2ccccc2)N2CN1C(=O)c1c(O)c(=O)ccn12` (single isomer, unassigned) [Compound 132A, (9*R,18*R,*E)-12-hydroxy-9-isopropyl-18-phenyl-9,10-dihydro-6H,18H-10,17-methanobenzo[b]pyrido[1,2-f][1]oxa[5,6]diazacyclotridecine-11,13-dione], the EC50 in data set [1] is above 0.1 µM. The compound further showed a CC50 in “in vitro” above 0.2 µM.

Regarding `O=C1c2c(O)c(=O)ccn2N2CN1C/C=C\COc1cc(F)c(F)c3c1[C@@H]2c1ccccc1SC3` (single isomer, unassigned) [Compound 140C, (21a*R,*Z)-24,25-difluoro-16-hydroxy-6,10,13,21a-tetrahydro-7,8-(epiprop[1]en[1]yl[3]ylidene)-14,21-methanobenzo[6,7]thiepino[4,5-c]pyrido[1,2-f][1]oxa[5,6,9]triazacyclotridecine-15,17-dione], in data set [1], the 50% effective concentration (EC50) was 0.0374 µM. The compound also had a CC50 in the data set “in vitro” above 10 µM.

For the compound `O=C1c2c(O)c(=O)ccn2N2CN1C/C=C\COc1c(OC(F)(F)F)cccc1[C@@H]2c1ccccc1` (single isomer, unassigned) [Compound 134B, (18*S,Z)-12-hydroxy-18-phenyl-4-(trifluoromethoxy)-6,9-dihydro-18H-10,17-methanobenzo[b]pyrido[1,2-f][1]oxa[5,6,9]triazacyclotridecine-11,13-dione], in data set [1], the EC50 was above 0.1 µM. In the data set “in vitro”, this compound displayed a CC50 above 0.2 µM.

Turning to `O=C1c2c(O)c(=O)ccn2N2CN1C/C=C\COc1ccccc1[C@H]2c1ccc(F)c(F)c1` (single isomer, unassigned) [Compound 45A, (18*R,Z)-18-(3,4-difluorophenyl)-12-hydroxy-6,9-dihydro-18H-10,17-methanobenzo[b]pyrido[1,2-f][1]oxa[5,6,9]triazacyclotridecine-11,13-dione], the EC50 in data set [1] is above 1 µM. For the same compound, the 50% cytotoxic concentration (CC50) in the data set “in vitro” was above 2 µM.

With `O=C1c2c(O)c(=O)ccn2N2CN1C[C@H]1C[C@@H]1COc1c(ccc(F)c1F)[C@H]2c1ccccc1` (single isomer, unassigned) [Compound 139BA, (1a*S,8*R,17a*S)-4,5-difluoro-14-hydroxy-8-phenyl-1a,2,17,17a-tetrahydro-1H,8H-9,16-methanobenzo[b]cyclopropa[k]pyrido[1,2-f][1]oxa[5,6,9]triazacyclotridecine-13,15-dione], the concentration giving a half-maximal response (EC50) in data set [1] is 0.0446 µM. Besides, the half-maximal cytotoxic concentration (CC50) in the data set “in vitro” is above 0.1 µM.

Consider `O=C1c2c(O)c(=O)ccn2N2CN1CCC1C[C@@H]1COc1cccc3c1[C@@H]2c1ccccc1SC3` (single isomer, unassigned) [Compound 131AB, (1*R,13*R,15*S)-7-hydroxy-17-oxa-24-thia-2,3,10-triazaheptacyclo[16.12.1.12,10.03,8.013,15.022,31.025,30]dotriaconta-4,18,20,22(31),25(30),26,28-heptaene-6,9-dione], for which the concentration giving a half-maximal response (EC50) in data set [1] came to 0.017 µM. In addition, the CC50 in “in vitro” was above 0.2 µM.

For the compound `O=C1c2c(O)c(=O)ccn2N2CN1C/C=C\COc1c(F)cccc1[C@@H]2c1cccc(F)c1` (single isomer, unassigned) [Compound 59B, (18*S,Z)-4-fluoro-18-(3-fluorophenyl)-12-hydroxy-6,9-dihydro-18H-10,17-methanobenzo[b]pyrido[1,2-f][1]oxa[5,6,9]triazacyclotridecine-11,13-dione], the EC50 in data set [1] was 0.497 µM. The cytotoxic concentration (CC50) in “in vitro” was above 2 µM.

Consider `COC[C@@H]1/C=C/COc2ccccc2[C@H](c2ccccc2)N2CN1C(=O)c1c(O)c(=O)ccn12` (single isomer, unassigned) [Compound 150B, (9*S,18*S,*E)-12-hydroxy-9-(methoxymethyl)-18-phenyl-6,9-dihydro-18H-10,17-methanobenzo[b]pyrido[1,2-f][1]oxa[5,6,9]triazacyclotridecine-11,13-dione], for which, in data set [1], the 50% effective concentration (EC50) worked out at 3.26 µM. Also, in the data set “in vitro”, the CC50 is above 10 µM.

Regarding `O=C1c2c(O)c(=O)ccn2N2CN1CCOC/C=C\c1cccc3c1[C@H]2c1ccccc1CC3` (single isomer, unassigned) [Compound 83A, (13Z,23b*R)-6-hydroxy-9,10,12,18,19,23b-hexahydro-1,8-methanobenzo[4,5]cyclohepta[1,2,3-qr]pyrido[1,2-c][9,2,3,6]benzoxatriazacyclotetradecine-5,7-dione], in data set [1], the concentration giving a half-maximal response (EC50) is above 0.5 µM. The CC50 in the data set “in vitro” was above 1 µM.

As to `C[C@@H]1C/C=C/COc2c(F)cccc2[C@@H](c2ccccc2)N2CN1C(=O)c1c(O)c(=O)ccn12` (single isomer, unassigned) [Compound 100AB, (2*R,9*R,*E)-33-fluoro-15-hydroxy-9-methyl-2-phenyl-12,13,14,16-tetrahydro-11H-4-oxa-1(1,3)-pyrido[2,1-f][1,2,4]triazina-3(1,2)-benzenacyclononaphan-6-ene-14,16-dione], the half-maximal effective concentration (EC50) in data set [1] was 0.0021 µM. The compound also displayed a CC50 in the data set “in vitro” above 0.2 µM.

For the compound `C[C@@H]1/C=C/COc2c(F)cccc2[C@H](c2ccccc2)N2CN1C(=O)c1c(O)c(=O)ccn12` (single isomer, unassigned) [Compound 141BA, (9*R,18*S,E)-4-fluoro-12-hydroxy-9-methyl-18-phenyl-6,9-dihydro-18H-10,17-methanobenzo[b]pyrido[1,2-f][1]oxa[5,6,9]triazacyclotridecine-11,13-dione], the concentration for a half-maximal effect (EC50) in data set [1] is 0.306 µM. The CC50 in the data set “in vitro” is above 20 µM.

Turning to `O=C1c2c(O)c(=O)ccn2N2CN1CCCCCc1ccccc1C2c1ccccc1` (stereo not drawn) [Compound 4, 4-hydroxy-16-phenyl-7,8,9,10,11,16-hexahydro-6,17-methanobenzo[k]pyrido[1,2-b][1,2,5]triazacyclotridecine-3,5-dione], the concentration for a half-maximal effect (EC50) in data set [1] is 0.048 µM. In the data set “in vitro”, this compound had a half-maximal cytotoxic concentration (CC50) above 4 µM.

Regarding `CC(C)[C@@H]1/C=C/COc2c(F)cccc2[C@H](c2ccccc2)N2CN1C(=O)c1c(O)c(=O)ccn12` (single isomer, unassigned) [Compound 124BB, (9*R,18*S,*E)-4-fluoro-12-hydroxy-9-isopropyl-18-phenyl-6,9-dihydro-18H-10,17-methanobenzo[b]pyrido[1,2-f][1]oxa[5,6,9]triazacyclotridecine-11,13-dione], the EC50 in data set [1] is 0.0053 µM. In “in vitro”, this compound came in with a half-maximal cytotoxic concentration (CC50) above 0.2 µM.

The record behind these values is US11312727B1, “Macrocyclic flu endonuclease inhibitors” (Janssen BioPharma, Inc., priority 2018, dated 2022).
